Laboratory results published in patent US8124610B2, “Sodium channel inhibitors” (Icagen Inc., priority 2007, dated 2012).
Read-outs that look alike come from different tables or passages of the source. Blank lines part the entries; values can stand above or below the compound they belong to.

Assays:
hSCN3A = target: T1, hSCN3A (Homo sapiens, UniProt Q9NY46); assay: Whole-cell patch-clamp electrophysiology (conventional or PatchXpress), HEK cells expressing hSCN3A, estimated IC-50; format: cell-based; details: read-out: SCN3A EIC-50
T1 construct: expressed in transfected cells
T1 sequence (Q9NY46 whole entry): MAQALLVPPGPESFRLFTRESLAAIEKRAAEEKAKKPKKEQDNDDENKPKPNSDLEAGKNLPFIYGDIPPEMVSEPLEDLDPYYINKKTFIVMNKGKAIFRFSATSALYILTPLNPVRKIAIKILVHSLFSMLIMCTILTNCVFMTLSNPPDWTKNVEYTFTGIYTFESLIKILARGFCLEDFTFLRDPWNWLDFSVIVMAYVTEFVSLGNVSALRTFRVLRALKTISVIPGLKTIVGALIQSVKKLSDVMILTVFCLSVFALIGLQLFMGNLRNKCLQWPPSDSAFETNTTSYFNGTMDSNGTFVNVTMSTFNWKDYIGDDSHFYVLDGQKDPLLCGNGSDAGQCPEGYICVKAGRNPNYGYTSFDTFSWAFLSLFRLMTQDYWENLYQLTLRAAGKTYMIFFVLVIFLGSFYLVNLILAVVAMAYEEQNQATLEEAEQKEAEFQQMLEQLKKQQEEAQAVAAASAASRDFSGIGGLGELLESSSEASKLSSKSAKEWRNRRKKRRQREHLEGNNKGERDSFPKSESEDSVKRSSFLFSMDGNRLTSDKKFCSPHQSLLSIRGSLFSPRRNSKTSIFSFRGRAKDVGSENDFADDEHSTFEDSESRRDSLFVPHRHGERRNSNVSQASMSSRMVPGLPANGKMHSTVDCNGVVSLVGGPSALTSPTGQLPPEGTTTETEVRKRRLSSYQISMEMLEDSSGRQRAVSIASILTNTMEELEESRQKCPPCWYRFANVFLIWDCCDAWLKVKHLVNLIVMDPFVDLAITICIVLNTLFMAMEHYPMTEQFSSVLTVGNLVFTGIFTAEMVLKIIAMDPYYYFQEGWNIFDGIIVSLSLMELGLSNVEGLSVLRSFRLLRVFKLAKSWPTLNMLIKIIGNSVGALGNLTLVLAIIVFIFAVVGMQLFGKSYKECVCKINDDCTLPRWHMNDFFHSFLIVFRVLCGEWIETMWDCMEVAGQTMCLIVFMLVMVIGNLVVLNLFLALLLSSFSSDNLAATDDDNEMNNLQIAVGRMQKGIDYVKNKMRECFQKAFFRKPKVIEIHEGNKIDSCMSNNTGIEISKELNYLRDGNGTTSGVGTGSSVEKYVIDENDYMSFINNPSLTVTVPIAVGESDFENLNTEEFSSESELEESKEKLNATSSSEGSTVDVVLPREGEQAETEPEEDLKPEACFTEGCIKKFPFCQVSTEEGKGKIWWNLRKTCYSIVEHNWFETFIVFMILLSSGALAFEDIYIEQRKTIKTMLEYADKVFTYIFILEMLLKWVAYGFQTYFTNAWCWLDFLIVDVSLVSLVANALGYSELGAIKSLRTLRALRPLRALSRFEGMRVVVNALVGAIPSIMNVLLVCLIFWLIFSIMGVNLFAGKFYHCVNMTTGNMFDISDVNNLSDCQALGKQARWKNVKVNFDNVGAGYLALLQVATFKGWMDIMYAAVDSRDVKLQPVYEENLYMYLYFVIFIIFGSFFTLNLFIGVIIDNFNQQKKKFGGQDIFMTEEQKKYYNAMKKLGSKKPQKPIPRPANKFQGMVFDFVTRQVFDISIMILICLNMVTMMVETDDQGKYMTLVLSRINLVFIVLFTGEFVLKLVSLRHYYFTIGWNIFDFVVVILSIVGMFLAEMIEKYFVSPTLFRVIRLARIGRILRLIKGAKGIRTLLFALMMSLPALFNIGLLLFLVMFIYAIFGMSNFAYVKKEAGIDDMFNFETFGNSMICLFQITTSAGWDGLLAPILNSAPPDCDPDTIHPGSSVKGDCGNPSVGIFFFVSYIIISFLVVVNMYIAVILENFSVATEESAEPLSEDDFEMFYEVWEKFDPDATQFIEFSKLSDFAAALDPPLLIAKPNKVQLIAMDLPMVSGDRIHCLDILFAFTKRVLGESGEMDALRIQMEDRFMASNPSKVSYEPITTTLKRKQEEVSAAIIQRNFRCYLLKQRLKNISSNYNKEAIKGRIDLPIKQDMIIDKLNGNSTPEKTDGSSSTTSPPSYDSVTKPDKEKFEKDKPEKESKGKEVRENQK
Protocol: Human Embryonic Kidney (HEK) cells were transfected with hSCN3A or hSCN9A constructs using lipofectamine reagent (Invitrogen), using standard techniques. Cells stably expressing the hSCN3A or hSCN9A constructs were identified by their resistance to G-418 (400 μg/ml). Clones were screened for expression using the whole-cell voltage-clamp technique. HEK cells stably transfected with hSCN3A or hSCN9A were maintained in DMEM medium supplemented with 10% heat-inactivated fetal bovine serum and 400 μg/ml G418 sulfate in an incubator at 37° C. with a humidified atmosphere of 10% CO2. For HTS, cells were harvested from flasks by trypsinization and replated in an appropriate multi-well plate (typically 96 or 384 wells/plate) such that confluence would be achieved within 24 hours of plating. For electrophysiological studies, cells were removed from the culture flask by brief trypsinization and replated at low density onto glass cover slips. Cells were typically used for electrophysiological experiments within 24 to 72 h after plating. Cover slips containing HEK cells expressing hSCN3A or hSCN9A were placed in a bath on the stage of an inverted microscope and perfused (approximately 1 ml/min) with extracellular solution of the following composition: 138 mM NaCl, 2 mM CaCl2, 5.4 mM KCl, 1 mM MgCl2, 10 mM glucose, and 10 mM HEPES, pH 7.4, with NaOH. […] All recordings were made at room temperature (22-24° C.) using AXOPATCH 200B amplifiers and PCLAMP software (Axon Instruments, Burlingame, Calif.) or PatchXpress 7000 hardware and associated software (Axon Instruments, Burlingame, Calif.). hSCN3A or hSCN9A currents in HEK cells were measured using the whole-cell configuration of the patch-clamp technique (Hamill et al., 1981). […] As a result, voltage errors were negligible and no correction was applied. Current records were acquired at 20 to 50 KHz and filtered at 5 to 10 KHz. HEK cells stably transfected with hSCN3A or hSCN9A were viewed under Hoffman contrast optics and placed in front of an array of flow pipes emitting either control or compound-containing extracellular solutions. All compounds were dissolved in dimethyl sulfoxide to make 10 mM stock solutions, which were then diluted into extracellular solution to attain the final concentrations desired. […] The voltage-dependence of inactivation was determined by applying a series of depolarizing prepulses (8 sec long in 10 mV increments) from a negative holding potential. The voltage was then immediately stepped to 0 mV to assess the magnitude of the sodium current. Currents elicited at 0 mV were plotted as a function of prepulse potential to allow estimation of the voltage midpoint of inactivation (V1/2). Cells were then voltage clamped at the empirically determined V1/2. Compounds were tested for their ability to inhibit hSCN3A or hSCN9A sodium channels by activating the channel with a 20 msec voltage step to 0 mV following an 8 second conditioning prepulse to the empirically determined V1-2 (Table B). Compound effect (% inhibition) was determined by difference in current amplitude before and after application of test compounds. […] In some cases electrophysiological assays were conducted with PatchXpress 7000 hardware and associated software (Molecular Devices Corp) (Table B). All assay buffers and solutions were identical to those used in conventional whole-cell voltage clamp experiments described above. hSCN3A or hSCN9A containing cells were grown as above to 50%-80% confluency and harvested by trypsinization. Trypsinized cells were washed and resuspended in extracellular buffer at a concentration of 1×10^6 cells/ml. The onboard liquid handling facility of the PatchXpress was used for dispensing cells and application of test compounds. Determination of the voltage midpoint of inactivation was as described for conventional whole-cell recordings. Cells were then voltage-clamped to the empirically determined V1/2 and current was activated by a 20 msec voltage step to 0 mV.

hSCN9A = target: T2, hSCN9A (Homo sapiens, UniProt Q15858); assay: Whole-cell patch-clamp electrophysiology (conventional or PatchXpress), HEK cells expressing hSCN9A, estimated IC-50; format: cell-based; details: read-out: SCN9A EIC-50
T2 construct: expressed in transfected cells
T2 sequence (Q15858 whole entry): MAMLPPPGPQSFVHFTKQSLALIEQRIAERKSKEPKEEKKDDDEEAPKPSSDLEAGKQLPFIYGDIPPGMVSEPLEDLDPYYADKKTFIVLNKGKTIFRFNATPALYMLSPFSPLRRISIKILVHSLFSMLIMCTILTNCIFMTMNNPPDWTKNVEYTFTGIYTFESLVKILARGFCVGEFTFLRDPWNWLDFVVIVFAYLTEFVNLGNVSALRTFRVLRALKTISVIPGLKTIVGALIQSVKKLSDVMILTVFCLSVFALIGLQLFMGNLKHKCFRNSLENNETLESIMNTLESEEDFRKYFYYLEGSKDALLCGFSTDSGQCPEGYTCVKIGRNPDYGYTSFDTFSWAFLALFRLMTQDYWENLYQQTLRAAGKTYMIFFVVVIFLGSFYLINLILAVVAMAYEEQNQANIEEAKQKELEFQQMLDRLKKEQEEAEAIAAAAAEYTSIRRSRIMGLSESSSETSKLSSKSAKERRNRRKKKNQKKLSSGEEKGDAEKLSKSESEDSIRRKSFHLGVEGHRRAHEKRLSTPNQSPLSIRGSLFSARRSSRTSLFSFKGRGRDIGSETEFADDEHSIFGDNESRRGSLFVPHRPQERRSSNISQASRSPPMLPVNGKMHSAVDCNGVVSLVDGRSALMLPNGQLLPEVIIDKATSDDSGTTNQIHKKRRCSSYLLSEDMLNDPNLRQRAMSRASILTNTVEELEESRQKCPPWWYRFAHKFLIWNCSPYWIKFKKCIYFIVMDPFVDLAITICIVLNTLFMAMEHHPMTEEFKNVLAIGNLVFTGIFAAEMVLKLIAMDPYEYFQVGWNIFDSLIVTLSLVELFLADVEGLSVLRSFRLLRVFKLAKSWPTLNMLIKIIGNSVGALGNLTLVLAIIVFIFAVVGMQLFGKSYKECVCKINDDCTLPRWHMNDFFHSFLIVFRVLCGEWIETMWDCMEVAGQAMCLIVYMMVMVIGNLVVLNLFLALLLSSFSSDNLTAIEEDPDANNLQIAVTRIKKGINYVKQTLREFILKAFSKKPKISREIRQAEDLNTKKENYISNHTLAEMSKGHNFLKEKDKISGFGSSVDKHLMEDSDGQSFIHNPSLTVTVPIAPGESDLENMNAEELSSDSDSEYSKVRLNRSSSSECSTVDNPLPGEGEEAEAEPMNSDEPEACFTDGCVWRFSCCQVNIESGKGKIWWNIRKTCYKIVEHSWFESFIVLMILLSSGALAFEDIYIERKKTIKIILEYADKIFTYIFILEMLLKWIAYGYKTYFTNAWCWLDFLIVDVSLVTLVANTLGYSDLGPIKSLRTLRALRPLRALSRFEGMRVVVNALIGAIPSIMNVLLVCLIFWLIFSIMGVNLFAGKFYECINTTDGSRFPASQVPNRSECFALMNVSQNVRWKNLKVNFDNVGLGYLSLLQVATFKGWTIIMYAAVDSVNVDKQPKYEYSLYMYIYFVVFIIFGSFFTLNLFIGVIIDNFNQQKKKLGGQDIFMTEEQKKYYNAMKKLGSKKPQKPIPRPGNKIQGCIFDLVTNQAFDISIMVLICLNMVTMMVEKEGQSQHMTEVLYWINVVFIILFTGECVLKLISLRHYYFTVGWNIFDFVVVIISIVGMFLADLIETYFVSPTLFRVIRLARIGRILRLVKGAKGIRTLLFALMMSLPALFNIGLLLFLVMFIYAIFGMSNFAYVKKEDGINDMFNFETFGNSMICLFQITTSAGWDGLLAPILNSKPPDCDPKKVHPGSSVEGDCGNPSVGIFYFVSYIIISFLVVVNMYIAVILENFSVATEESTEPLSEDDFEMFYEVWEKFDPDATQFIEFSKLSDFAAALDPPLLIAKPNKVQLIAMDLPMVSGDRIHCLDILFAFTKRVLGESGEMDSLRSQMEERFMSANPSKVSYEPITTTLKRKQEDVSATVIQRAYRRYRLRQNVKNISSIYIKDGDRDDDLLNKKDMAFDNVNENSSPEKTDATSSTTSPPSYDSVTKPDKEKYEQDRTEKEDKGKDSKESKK
Procedure, shortened: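 Stably transfected HEK cells recorded by whole-cell voltage clamp (manual or PatchXpress) at 22–24 °C in pH 7.4 HEPES-buffered extracellular solution. Cells held at the empirically determined inactivation V1/2 after an 8 s prepulse, then stepped to 0 mV for 20 ms; % inhibition from current amplitude before vs after compound.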

[1] = estimated IC-50, HEK cells expressing hSCN3A, class symbols or bounds
[2] = estimated IC-50, HEK cells expressing hSCN9A, class symbols or bounds
[3] = Table V, estimated IC-50 from single point electrophysiology, cells clamped at V1/2
[4] = commercial compounds (second Table VI), estimated IC-50 from single point electrophysiology

SMILES: Cn1nc(CC(C)(C)C)cc1Nc1ccc(S(=O)(=O)Nc2nccs2)c(F)c1 [Compound 34, 2-fluoro-4-(1-methyl-3-neopentyl-1H-pyrazol-5-ylamino)-N-(thiazol-2-yl)benzenesulfonamide]
IC50 (hSCN3A; [3]): < 2000 nM
IC50 (hSCN9A; [3]): < 2000 nM

SMILES: COc1ccc(CNCc2csc(Nc3ccc(S(=O)(=O)Nc4nccs4)cc3)n2)c(OC)c1 [Compound 76, 4-(4-((2,4-dimethoxybenzylamino)methyl)thiazol-2-ylamino)-N-(thiazol-2-yl)benzenesulfonamide]
IC50 (hSCN3A; [1]): 2000 to 10000 nM
IC50 (hSCN9A; [2]): 2000 to 10000 nM

SMILES: O=S(=O)(Nc1nccs1)c1ccc(Nc2nccc(OCc3ccc(C(F)(F)F)cc3)n2)cc1 [Compound 55, N-(thiazol-2-yl)-4-(4-(4-(trifluoromethyl)benzyloxy)pyrimidin-2-ylamino)benzenesulfonamide]
IC50 (hSCN3A; [1]): < 2000 nM
IC50 (hSCN9A; [2]): > 1000 nM

SMILES: Cc1nnc(Nc2ccc(S(=O)(=O)Nc3nccs3)cc2)c2ccccc12 [Compound 39, 4-(4-methylphthalazin-1-ylamino)-N-(thiazol-2-yl)benzenesulfonamide, reference compound]
IC50 (hSCN3A; [4]): > 1000 nM
IC50 (hSCN9A; [4]): > 3000 nM

SMILES: O=S(=O)(Nc1nccs1)c1ccc(Nc2nc(CNC(c3ccccc3)c3ccccc3)cs2)cc1 [Compound 60, 4-(4-((benzhydrylamino)methyl)thiazol-2-ylamino)-N-(thiazol-2-yl)benzenesulfonamide]
IC50 (hSCN3A; [1]): < 2000 nM
IC50 (hSCN9A; [2]): 2000 to 10000 nM

SMILES: CC(C)(C)c1csc(Nc2ccc(S(=O)(=O)Nc3nccs3)cc2)n1 [Compound 14, 4-(4-Tert-butyl-thiazol-2-ylamino)-N-thiazol-2-yl-benzenesulfonamide]
IC50 (hSCN3A; [3]): < 2000 nM
IC50 (hSCN9A; [3]): 2000 to 10000 nM

SMILES: O=S(=O)(Nc1nccs1)c1ccc(Nc2nc(C3CC3c3ccccc3)cs2)cc1 (stereo not drawn) [Compound 53, 4-(4-(2-phenylcyclopropyl)thiazol-2-ylamino)-N-(thiazol-2-yl)benzenesulfonamide]
IC50 (hSCN3A; [1]): < 2000 nM
IC50 (hSCN9A; [2]): > 1000 nM

SMILES: O=S(=O)(Nc1nccs1)c1ccc(Nc2cc(C3CC3)nn2-c2ccccc2)c(F)c1 [Compound 36, 4-(3-cyclopropyl-1-phenyl-1H-pyrazol-5-ylamino)-3-fluoro-N-(thiazol-2-yl)benzenesulfonamide]
IC50 (hSCN3A; [3]): < 2000 nM
IC50 (hSCN9A; [3]): < 2000 nM

SMILES: CN(C)c1ccc(CNCc2csc(Nc3ccc(S(=O)(=O)Nc4nccs4)cc3)n2)cc1 [Compound 73, 4-(4-((4-(dimethylamino)benzylamino)methyl)thiazol-2-ylamino)-N-(thiazol-2-yl)benzenesulfonamide]
IC50 (hSCN3A; [1]): < 2000 nM
IC50 (hSCN9A; [2]): 2000 to 10000 nM

SMILES: O=[N+]([O-])c1ccc(CNCc2csc(Nc3ccc(S(=O)(=O)Nc4nccs4)cc3)n2)cc1 [Compound 72, 4-(4-((4-nitrobenzylamino)methyl)thiazol-2-ylamino)-N-(thiazol-2-yl)benzenesulfonamide]
IC50 (hSCN3A; [1]): < 2000 nM
IC50 (hSCN9A; [2]): 2000 to 10000 nM

SMILES: O=S(=O)(Nc1nccs1)c1ccc(Nc2nc(Cc3ccc(F)cc3F)cs2)cc1 [Compound 79, 4-(4-(2,4-difluorobenzyl)thiazol-2-ylamino)-N-(thiazol-2-yl)benzenesulfonamide]
IC50 (hSCN3A; [1]): < 2000 nM
IC50 (hSCN9A; [2]): < 2000 nM

SMILES: O=S(=O)(Nc1nccs1)c1ccc(Nc2nc(CNCCC(c3ccccc3)c3ccccc3)cs2)cc1 [Compound 61, 4-(4-((3,3-diphenylpropylamino)methyl)thiazol-2-ylamino)-N-(thiazol-2-yl)benzenesulfonamide]
IC50 (hSCN3A; [1]): < 2000 nM
IC50 (hSCN9A; [2]): < 2000 nM

SMILES: CC(C)(C)c1cc(Nc2ccc(S(=O)(=O)Nc3nccs3)cc2)[nH]n1 [Compound 23, 4-(3-tert-butyl-1H-pyrazol-5-ylamino)-N-(thiazol-2-yl)benzenesulfonamide]
IC50 (hSCN3A; [3]): 2000 to 10000 nM
IC50 (hSCN9A; [3]): 2000 to 10000 nM

SMILES: CC(C)(C)c1csc(Nc2ccc(S(=O)(=O)Nc3nccs3)c3ccccc23)n1 [Compound 12, 4-(4-tert-Butyl-thiazol-2-ylamino)-naphthalene-1-sulfonic acid thiazol-2-ylamide]
IC50 (hSCN3A; [3]): < 2000 nM
IC50 (hSCN9A; [3]): 2000 to 10000 nM

SMILES: O=S(=O)(Nc1nccs1)c1ccc(Nc2nnc(-c3ccc(Cl)cc3)c3ccccc23)cc1 [Compound 40, 4-(4-(4-chlorophenyl)phthalazin-1-ylamino)-N-(thiazol-2-yl)benzenesulfonamide, reference compound]
IC50 (hSCN3A; [4]): 1320 nM
IC50 (hSCN9A; [4]): 3490 nM

SMILES: Cc1nc(Nc2ccc(S(=O)(=O)Nc3nccs3)cc2)sc1C(C)(C)C [Compound 8, 4-(5-Tert-butyl-4-methylthiazol-2-ylamino)-N-(thiazol-2-yl)benzenesulfonamide]
IC50 (hSCN3A; [3]): < 2000 nM
IC50 (hSCN9A; [3]): < 2000 nM

More lines, now with the values ahead:

IC50 (hSCN3A; [1]): < 2000 nM
IC50 (hSCN9A; [2]): < 2000 nM
SMILES: Cn1nc(-c2ccc(Cl)cc2)cc1Nc1ccc(S(=O)(=O)Nc2nccs2)c(F)c1 [Compound 153, 4-(3-(4-chlorophenyl)-1-methyl-1H-pyrazol-5-ylamino)-2-fluoro-N-(thiazol-2-yl)benzenesulfonamide]

IC50 (hSCN3A; [1]): < 2000 nM
IC50 (hSCN9A; [2]): 2000 to 10000 nM
SMILES: O=S(=O)(Nc1nccs1)c1ccc(Nc2ccn(Cc3ccc(Cl)cc3)n2)cn1 [Compound 235, 5-(1-(4-chlorobenzyl)-1H-pyrazol-3-ylamino)-N-(thiazol-2-yl)pyridine-2-sulfonamide]

IC50 (hSCN3A; [1]): < 2000 nM
IC50 (hSCN9A; [2]): < 2000 nM
SMILES: O=S(=O)(Nc1nccs1)c1ccc(Nc2cc(-c3ccccc3)nn2-c2ccccc2)cc1F [Compound 154, 4-(1,3-diphenyl-1H-pyrazol-5-ylamino)-2-fluoro-N-(thiazol-2-yl)benzenesulfonamide]

IC50 (hSCN3A; [1]): < 2000 nM
IC50 (hSCN9A; [2]): > 1000 nM
SMILES: O=S(=O)(Nc1nccs1)c1ccc(Nc2cccc(C(c3ccccc3)c3ccccc3)n2)cc1 [Compound 93, 4-(6-benzhydrylpyridin-2-ylamino)-N-(thiazol-2-yl)benzenesulfonamide]

IC50 (hSCN3A; [1]): < 2000 nM
IC50 (hSCN9A; [2]): < 2000 nM
SMILES: COc1cc(Cl)ccc1-c1cc(Nc2ccc(S(=O)(=O)Nc3nccs3)c(F)c2)n(C)n1 [Compound 222, 4-(3-(4-chloro-2-methoxyphenyl)-1-methyl-1H-pyrazol-5-ylamino)-2-fluoro-N-(thiazol-2-yl)benzenesulfonamide]

IC50 (hSCN3A; [1]): < 2000 nM
IC50 (hSCN9A; [2]): < 2000 nM
SMILES: O=S(=O)(Nc1nccs1)c1ccc(Nc2ccn(Cc3ccc(C(F)(F)F)cc3)n2)cc1F [Compound 183, 2-fluoro-N-(thiazol-2-yl)-4-(1-(4-(trifluoromethyl)benzyl)-1H-pyrazol-3-ylamino)benzenesulfonamide]

IC50 (hSCN3A; [1]): < 2000 nM
IC50 (hSCN9A; [2]): < 2000 nM
SMILES: O=S(=O)(Nc1ncns1)c1ccc(Nc2ccn(Cc3ccc(Cl)cc3)n2)cc1F [Compound 244, 4-(1-(4-chlorobenzyl)-1H-pyrazol-3-ylamino)-2-fluoro-N-(1,2,4-thiadiazol-5-yl)benzenesulfonamide]

IC50 (hSCN3A; [1]): < 2000 nM
IC50 (hSCN9A; [2]): < 2000 nM
SMILES: Cn1nc(CC2CCCCC2)cc1Nc1ccc(S(=O)(=O)Nc2nccs2)c(O)c1 [Compound 134, 4-(3-(cyclohexylmethyl)-1-methyl-1H-pyrazol-5-ylamino)-2-hydroxy-N-(thiazol-2-yl)benzenesulfonamide]
